Consider 16 molecules from patent publication US20160075682A1, “INHIBITORS OF NICOTINAMIDE PHOSPHORIBOSYLTRANSFERASE, COMPOSITIONS, PRODUCTS AND USES THEREOF” (UNIVERSITÀ DEGLI STUDI DEL PIEMONTE ORIENTALE "AMEDEO …, priority 2013, published 2016).

Data set [1] relates to SH-SY5Y, HeLa. The data set is described as follows: MTT cell proliferation assay and trypan blue count (cell viability). The format is cell-based. The conditions noted are these: cells treated for 48 and 72 hours; read-out: IC50 values (inhibition of cellular proliferation, MTT assay and trypan blue assay). On the procedure:
Cell based assays were used to evaluate the possible cytotoxic effects of some compounds. To measure cytotoxic effects two different methods were used, a MTT cell proliferation assay and trypan blue count.
The Trypan blue assay is used to determine the number of viable cells present in a cell suspension. […] Briefly, 8×10^5 cells (SH-SY5Y, HeLa; obtained from ATCC, LGC standards, Sesto San Giovanni) were seeded in 24-well plates and treated for 48 and 72 hours. After the treatments, cells were stained with trypan blue and counted.
To analyze cell viability was used the colorimetric 3-(4,5-dimethylthiazol-2-yl)-2,5-diphenyltetrazolium bromide (MTT) method. The assay is based on the cleavage of the yellow tetrazolium salt MTT to purple formazan crystals by metabolic active cells. Since reduction of MTT can only occur in metabolically active cells, the level of activity is a measure of the viability of cells and conversely the cytotoxic effects of various treatments. Briefly, 8×10^5 cells (SH-SY5Y, code number CRL-2266; and HeLa, code number CCL-2) were seeded in 24-well plates and treated for 48 and 72 hours. Compounds were dissolved in DMSO and were added to the cells to give a final DMSO concentration no greater than 0.5%. Cells were washed once in Locke buffer and 300 μl of MTT (250 μg/ml in Locke buffer) were added before returning the cells to the incubator for 1 h to allow the formation of the purple formazan crystals. After 1 h, 600 μl of isopropanol/0.1 M HCl were added to each well, and the absorbance was read at 570 nm in a plate reader (Victor3V, PerkinElmer Life Sciences). For some compounds a dose response curve and IC50 for the effects on cell viability and proliferation were calculated. Cell lines used were originally purchased from ATCC (LGC standards. Sesto San Giovanni).
To evaluate the ability of each compound to inhibit cellular proliferation, cells were seeded in 24-well plates and treated for 48 and 72 hours. After the treatments the MTT assay and trypan blue assay were performed.

The target of data set [2] is T1, NAMPT (Homo sapiens, UniProt P43490).
T1 construct: endogenous in cells; host or cells: SH-SY5Y and HeLa
The data set can be described thus: Direct inhibition of NAMPT enzymatic activity (Cyclex NAMPT colorimetric Assay Kit). The format is biochemical. The conditions noted are these: as assessed with a cycling assay. On the procedure: Determination of the direct activity of compounds on NAMPT was performed using a commercial kit, Cyclex NAMPT colorimetric Assay Kit.

A short description of data set [3]: Microsomal stability with rat liver microsomes. Type of data set: in vitro ADME, Male Wistar rat. The conditions noted are these: 50 μM substrate, 1.0 mg/mL protein, 60 minutes at 37° C., pH 7.4. On the procedure: (§1) Male Wistar rat liver microsomes (RLM), (protein concentration: 25 mg/ml determined using the Omura and Sato method, total P450: 0.64 nmol/mg protein) were used throughout this study and prepared using an internal protocol. The cryopreserved pooled human liver microsomes (HLM), (pooled mixed sex, ten individual donors, protein concentration: 20 mg/ml, total P450: 0.36 nmol/mg) were purchased from BD Gentest™ (Woburn, Mass.) and used throughout this study.
(§2) The standard incubation mixture (1 ml final volume), was carried out in a 50 mM TRIS (Tris[hydroxymethyl]aminomethane) buffer (pH 7.4) containing 10 μl of acetonitrile (1% of total volume), and 50 μM substrate compounds. After pre-equilibration of the mixture, an appropriate volume of RLM or HLM suspension was added to give a final protein concentration of 1.0 mg/mL. The mixture was shaken for 60 minutes at 37° C. Control incubations were carried out without microsomes. Each incubation was stopped by addition of 1 ml ice-cold acetonitrile, vortexed and centrifuged at 11,000 r.p.m. for 5 min. The supernatants were analysed by LC-DAD-UV and LC-ESI-MS systems to determine the metabolic stability (% substrate residue) and the structure of metabolites respectively (Table 1).
(§3) A Shimadzu HPLC system (Shimadzu, Kyoto, Japan), consisting of two LC-10AD Vp module pumps, an SLC-10A Vp system controller, an SIL-10AD Vp autosampler, and a DGU-14-A on-line degasser were used for the analysis. Chromatographic separation was performed on a Phenomenex Luna C18(2) 150×4.6 mm (5 μm) (Phenomenex srl, Castel Bolognese, Italy) as a stationary phase protected by a C18 SecurityGuard (Phenomenex srl, Castel Bolognese, Italy). The SPD-M10Avp photodiode array detector was used to detect the analytes. LC-Solution 1.24 software was used to process the chromatograms. Aliquots (20 μL) of supernatants obtained from incubations were injected onto the HPLC system and eluted with a mobile phase (flow rate 1.0 mL/min) consisting of a A: 0.5% formic acid solution, B: acetonitrile/methanol 8:2. A Thermo Finningan LCQ Deca XP plus system equipped with a quaternary pump, a Surveyor AS autosampler, a Surveyor photodiode array detector and a vacuum degasser was used for LC/MS analyses (Thermo Electron Corporation, Waltham, Mass.). All the chromatographic separations were performed on a Phenomenex Luna C18(2)150×2 mm (4 μm) (kept at a 35° C.) as a stationary phase protected by a C18 SecurityGuard (Phenomenex srl, Castel Bolognese, Italy). Aliquots (2.0 μl) of supernatants obtained from incubations were injected onto the system and eluted with a mobile phase (flow rate 0.2 ml/min) consisting of a A: 0.2% formic acid solution, B: acetonitrile/methanol 8:2. The eluate was injected into the electrospray ion source (ESI) and MS and MS^n spectra were acquired and processed using Xcalibur® software. The operating conditions on the ion trap mass spectrometer were as follows: Positive mode, spray voltage, 5.30 kV; source current, 80 μA; capillary temperature, 350° C.; capillary voltage, 21.00 V; tube lens offset, 15.00 V; multipole 1 offset, −5.75 V; multipole 2 offset, −9.00 V; sheath gas flow (N2), 55 Auxiliary Units.

Data set [4] can be described thus: Microsomal stability with human liver microsomes. The format is in vitro ADME. The conditions noted are these: 50 μM substrate, 1.0 mg/mL protein, 60 minutes at 37° C., pH 7.4. As to the method:
as §1, §2, §3

A short description of data set [5]: Metabolites generated from hydrolyses in RLM or HLM incubations (LC-ESI-MS). The conditions noted are these: RLM or HLM incubation, 60 minutes at 37° C. The format is in vitro ADME, rat, human. On the procedure:
as §1, §2, §3

Where only a bound is given, the exact number is not on record here.

T1 sequence (P43490 whole entry): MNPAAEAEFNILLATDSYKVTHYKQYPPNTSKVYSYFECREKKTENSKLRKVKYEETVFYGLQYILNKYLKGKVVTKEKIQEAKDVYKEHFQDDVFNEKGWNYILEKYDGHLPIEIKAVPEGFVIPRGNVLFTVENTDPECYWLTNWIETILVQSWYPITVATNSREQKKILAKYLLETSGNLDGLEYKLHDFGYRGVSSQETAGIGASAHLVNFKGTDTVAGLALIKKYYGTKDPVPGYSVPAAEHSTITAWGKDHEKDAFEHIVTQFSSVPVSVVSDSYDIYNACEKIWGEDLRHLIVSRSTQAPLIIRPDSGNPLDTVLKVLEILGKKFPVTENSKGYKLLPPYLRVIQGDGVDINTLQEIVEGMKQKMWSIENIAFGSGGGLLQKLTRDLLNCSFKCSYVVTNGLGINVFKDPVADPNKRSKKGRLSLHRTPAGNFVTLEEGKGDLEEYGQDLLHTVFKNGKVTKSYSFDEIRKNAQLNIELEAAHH

Consider `c1ccc(-c2ccccc2OCCCCCCCn2cc(-c3cccnc3)nn2)cc1` [3-(1-(7-([1,1′-biphenyl]-2-yloxy)heptyl)-1H-1,2,3-triazol-4-yl)pyridine], for which the IC50 in data set [1] is less than 300 nM. Further, in data set [2], the “inhibition of the enzymatic activity of NAMPT” value (“inhibition” for short) is on record as “able to inhibit”.

On to `c1ccc(-c2ccccc2-c2cn(CCCCCCCn3cc(-c4cccnc4)nn3)nn2)cc1` [3-(1-(7-(4-([1,1′-byphenyl]-2-yl)-1H-1,2,3-triazol-1-yl)heptyl)-1H-1,2,3-triazol-4-yl)pyridine], for which the “RLM stability % substrate residue (area peak)” value in data set [3] was more than 99%. Further, the IC50 in data set [1] is less than 300 nM. In addition, the “HLM stability % substrate residue (area peak)” value in data set [4] is reported as more than 99%. Besides, in data set [5], the “Metabolites generated from hydrolyses” value is listed as “no”.

In the case of `c1cncc(-c2cn(CCCCCCOc3ccccc3-c3cccnc3)nn2)c1` [3-(2-((6-(4-(pyridin-3-yl)-1H-1,2,3-triazol-1-yl)hexyl)oxy)phenyl)pyridine], in data set [3], the “RLM stability % substrate residue (area peak)” value was more than 95%. Further, in data set [1], the IC50 is less than 300 nM. The “inhibition” value in data set [2] is given as “able to inhibit”. Also, the “HLM stability % substrate residue (area peak)” value in data set [4] was more than 99%. Also, the “Metabolites generated from hydrolyses” value in data set [5] is reported as “no”.

Turning to `O=C(Nc1ccccc1-c1ccccc1)OCCCCCCn1cc(-c2cccnc2)nn1` [6-(4-(pyridin-3-yl)-1H-1,2,3-triazol-1-yl)hexyl[1,1′-biphenyl]-2-ylcarbamate], in data set [1], the IC50 is less than 300 nM. The “inhibition” value in data set [2] is on record as “able to inhibit”.

`c1ccc(-c2ccccc2OCCCCCCCCn2cc(-c3cccnc3)nn2)cc1` [3-(1-(8-([1,1′-biphenyl]-2-yloxy)octyl)-1H-1,2,3-triazol-4-yl)pyridine]: in data set [1], the IC50 is less than 300 nM. Besides, the “inhibition” value in data set [2] was “able to inhibit”.

With `O=C(NCCCCCCCn1cc(-c2cccnc2)nn1)Nc1ccccc1-c1ccccc1` [1-([1,1′-biphenyl]-2-yl)-3-(7-(4-(pyridin-3-yl)-1H-1,2,3-triazol-1-yl)heptyl)urea], the “RLM stability % substrate residue (area peak)” value in data set [3] is on record as more than 95%. Also, the IC50 in data set [1] is less than 300 nM. The “inhibition” value in data set [2] was “able to inhibit”. The “HLM stability % substrate residue (area peak)” value in data set [4] was more than 98%. The “Metabolites generated from hydrolyses” value in data set [5] was “yes (traces)”.

Regarding `O=C(NCCc1ccc(Cn2cc(-c3cccnc3)nn2)cc1)Nc1ccccc1-c1ccccc1` [1-([1,1′-biphenyl]2-yl)-3-(4-((4-(pyridin-3-yl)-1H-1,2,3-triazol-1-yl)methyl)phenethyl)urea], the “RLM stability % substrate residue (area peak)” value in data set [3] was more than 99%. Moreover, the IC50 in data set [1] was less than 300 nM. Also, the “HLM stability % substrate residue (area peak)” value in data set [4] was more than 99%. Besides, the “Metabolites generated from hydrolyses” value in data set [5] was “no”.

On to `O=C(Nc1ccc(CCCn2cc(-c3cccnc3)nn2)cc1)c1ccccc1-c1ccccc1` [N-(4-(3-(4-(pyridin-3-yl)-1H-1,2,3-triazol-1-yl)propyl)phenyl)-[1,1′-biphenyl]-2-carboxamide], for which the “RLM stability % substrate residue (area peak)” value in data set [3] was more than 99%. The IC50 in data set [1] was less than 300 nM. Moreover, the “HLM stability % substrate residue (area peak)” value in data set [4] is reported as more than 98%. Moreover, the “Metabolites generated from hydrolyses” value in data set [5] is “no”.

For `c1ccc(-c2ccccc2OCCCc2ccc(-n3cc(-c4cccnc4)nn3)cc2)cc1` [3-(1-(4-(3-([1,1′-biphenyl]-2-yloxy)propyl)phenyl)-1H-1,2,3-triazol-4-yl)pyridine], the melting point (as a rule, the temperature of the solid-liquid transition) was 164 to 165 °C. Moreover, the “RLM stability % substrate residue (area peak)” value in data set [3] is listed as more than 92%. For the same molecule, the IC50 in data set [1] is less than 300 nM. The “HLM stability % substrate residue (area peak)” value in data set [4] is on record as more than 98%. Further, in data set [5], the “Metabolites generated from hydrolyses” value was “no”.

Consider `O=S(=O)(NCCCCCCCCn1cc(-c2cccnc2)nn1)c1ccccc1-c1ccccc1` [N-(8-(4-(pyridin-3-yl)-1H-1,2,3-triazol-1-yl)octyl) biphenyl-2-sulfonamide], for which, in data set [3], the “RLM stability % substrate residue (area peak)” value is recorded as more than 99%. Besides, the IC50 in data set [1] was less than 300 nM. Also, in data set [4], the “HLM stability % substrate residue (area peak)” value is reported as more than 99%. Further, the “Metabolites generated from hydrolyses” value in data set [5] is recorded as “no”.

With `O=C(NCCCCCCn1cc(-c2cccnc2)nn1)c1ccccc1-c1ccccc1` [N-(6-(4-(pyridin-3-yl)-1H-1,2,3-triazol-1-yl)hexyl)-[1,1′-biphenyl]-2-carboxamide], the IC50 in data set [1] was less than 300 nM. Besides, the “inhibition” value in data set [2] is reported as “able to inhibit”.

On to `O=C(NCCCCCCCn1cc(-c2cccnc2)nn1)c1ccccc1-c1cccnc1` [2-(pyridin-3-yl)-N-(7-(4-(pyridin-3-yl)-1H-1,2,3-triazol-1-yl)heptyl)benzamide], for which the “RLM stability % substrate residue (area peak)” value in data set [3] is more than 99%. The IC50 in data set [1] is less than 300 nM. In addition, in data set [2], the “inhibition” value was “able to inhibit”. In addition, in data set [4], the “HLM stability % substrate residue (area peak)” value is listed as more than 96%. For the same molecule, the “Metabolites generated from hydrolyses” value in data set [5] is reported as “no”.

As to `O=C(NCCc1ccc(Cn2cc(-c3cccnc3)nn2)cc1)c1ccccc1-c1ccccc1` [N-(4-((4-(pyridin-3-yl)-1H-1,2,3-triazol-1-yl)methyl)phenethyl)[1,1′-biphenyl]-2-carboxamide], the “RLM stability % substrate residue (area peak)” value in data set [3] is reported as more than 99%. Also, the IC50 in data set [1] is less than 300 nM. In data set [4], the “HLM stability % substrate residue (area peak)” value is more than 99%. Besides, in data set [5], the “Metabolites generated from hydrolyses” value is reported as “no”.

Take `O=C(NCCCCCCn1cc(-c2cccnc2)nn1)Nc1ccccc1-c1ccccc1` [1-([1,1′-biphenyl]-2-yl)-3-(6-(4-(pyridin-3-yl)-1H-1,2,3-triazol-1-yl)hexyl)urea]: the IC50 in data set [1] was less than 300 nM. In addition, in data set [2], the “inhibition” value is listed as “able to inhibit”.

Consider `O=C(Nc1ccccc1-c1ccccc1)OCCCCCCCn1cc(-c2cccnc2)nn1` [7-(4-(pyridin-3-yl)-1H-1,2,3-triazol-1-yl)heptyl[1,1′-biphenyl]-2-ylcarbamate], for which, in data set [1], the IC50 is less than 300 nM. For the same molecule, the “inhibition” value in data set [2] is listed as “able to inhibit”.

With `c1ccc(-c2ccccc2OCCc2ccc(Cn3cc(-c4cccnc4)nn3)cc2)cc1` [3-(1-(4-(2-([1,1′-biphenyl]-2-yloxy)ethyl)benzyl)-1H-1,2,3-triazol-4-yl)pyridine], the “RLM stability % substrate residue (area peak)” value in data set [3] is recorded as more than 97%. Also, the IC50 in data set [1] is less than 300 nM. The “HLM stability % substrate residue (area peak)” value in data set [4] is on record as more than 99%. In addition, the “Metabolites generated from hydrolyses” value in data set [5] was “no”.
